Experimental data taken from PMC7180767, “Influence of Selected Antidepressants on the Ciliated Protozoan Spirostomum ambiguum: Toxicity, Bioaccumulation, and Biotransformation Products” (Molecules, 2020).
≈ marks a conversion by molar mass, not a printed value. Read-outs that look alike come from different tables or passages of the source.

What was measured:
Spirostomum ambiguum [1] = system: Spirostomum ambiguum
Spirostomum ambiguum [2] = system: Spirostomum ambiguum; remark: listed apart in the source
[3] = ref www.drugbank.ca, cited from earlier work; for Log P: octanol-water partition coefficient
Ceriodaphnia dubia = conditions: cited from earlier work; for toxicity: endpoint not stated
Thamnocephalus platyurus = conditions: cited from earlier work
Daphnia magna = conditions: endpoint not stated; cited from earlier work
Planorbid sp. = conditions: in vivo; cited from earlier work
Gammarus pulex = conditions: cited from earlier work
Notonecta glauca = conditions: cited from earlier work
M. galloprovincialis = conditions: fluoxetine 75 ng/L nominal, cited from earlier work
in vitro = conditions: for LC50 at 1 d / LC50 at 2 d / LC50 at 7 d: Spirostomum ambiguum
Spirostomum ambiguum [4] = experiment: microbe, parasite or virus in culture
Spirostomum ambiguum [5] = system: Spirostomum ambiguum; remark: listed apart in the source
Leishmania donovani = conditions: cited from earlier work
Oncorhynchus mykiss = conditions: cited from earlier work
[6] = system: Hydropsyche sp. and Erpobdella octoculata; conditions: effluent reach stream; cited from earlier work
[7] = Spirostomum ambiguum, 7 d, 10 µg/L, pH 7.4
[8] = Spirostomum ambiguum, 7 d, 25 µg/L, pH 7.4
[9] = Spirostomum ambiguum, 8 d, 10 µg/L, pH 7.4
[10] = Spirostomum ambiguum, 8 d, 25 µg/L, pH 7.4
[11] = Spirostomum ambiguum, 12 d, 10 µg/L, pH 7.4
[12] = Spirostomum ambiguum, 12 d, 25 µg/L, pH 7.4

Structure (SMILES): CNCCC(Oc1ccc(C(F)(F)F)cc1)c1ccccc1 (stereo not shown) [Fluoxetine, fluoxetine]
- EC20 (Spirostomum ambiguum [1]; 1 d, pH = 6.0): 2.03 ± 0.82 µg/mL (≈ 6.56 µM)
- EC20 (Spirostomum ambiguum [1]; 1 d, pH = 6.5): 1.16 ± 0.14 µg/mL (≈ 3.75 µM)
- EC20 (Spirostomum ambiguum [1]; 1 d, pH = 7.4): 1.21 ± 0.04 µg/mL (≈ 3.91 µM)
- EC20 (Spirostomum ambiguum [1]; 2 d, pH = 6.0): 1.72 ± 0.51 µg/mL (≈ 5.56 µM)
- EC20 (Spirostomum ambiguum [1]; 2 d, pH = 6.5): 0.98 ± 0.16 µg/mL (≈ 3.17 µM)
- EC20 (Spirostomum ambiguum [1]; 2 d, pH = 7.4): 1.06 ± 0.11 µg/mL (≈ 3.43 µM)
- EC20 (Spirostomum ambiguum [1]; 7 d, pH = 6.0): 0.86 ± 0.15 µg/mL (≈ 2.78 µM)
- EC20 (Spirostomum ambiguum [1]; 7 d, pH = 6.5): 0.58 ± 0.07 µg/mL (≈ 1.88 µM)
- EC20 (Spirostomum ambiguum [1]; 7 d, pH = 7.4): 0.70 ± 0.13 µg/mL (≈ 2.26 µM)
- BCF values reached during the uptake phase (Spirostomum ambiguum [2]; S. ambiguum, uptake phase): ≤ 1000 L/kg
- Log P [3]: 4.09
- toxicity (Ceriodaphnia dubia): 0.23 mg/L
- toxicity (Thamnocephalus platyurus; endpoint not stated): 0.85 mg/L
- toxicity (Daphnia magna): 0.82 mg/L
- BCF (Planorbid sp.): 3000 L/kg
- BCF (Gammarus pulex): 185,900 L/kg
- BCF (Notonecta glauca): 1387 L/kg
- concentration in mussel (M. galloprovincialis; after 3 days): 2.53 ng/g dry weight
- concentration in mussel (M. galloprovincialis; after 15 days): 9.31 ng/g

Structure (SMILES): NCCC(Oc1ccc(C(F)(F)F)cc1)c1ccccc1 (stereo not shown) [norfluoxetine]
- concentration in mussel (M. galloprovincialis; after 3 days): 3.06 ng/g dry weight
- concentration in mussel (M. galloprovincialis; after 15 days): 11.65 ng/g

Structure (SMILES): Fc1ccc([C@@H]2CCNC[C@H]2COc2ccc3c(c2)OCO3)cc1 [Paroxetine, paroxetine]
- Bioconcentration factor in S. ambiguum (Spirostomum ambiguum [2]; [7]): 905 L/kg
- Concentration in S. ambiguum (Spirostomum ambiguum [2]; [7]): 0.45 µg/g
- Bioconcentration factor in S. ambiguum (Spirostomum ambiguum [2]; [8]): 794 L/kg
- Concentration in S. ambiguum (Spirostomum ambiguum [2]; [8]): 1.19 µg/g
- Bioconcentration factor in S. ambiguum (Spirostomum ambiguum [2]; [9]): 806 L/kg
- Concentration in S. ambiguum (Spirostomum ambiguum [2]; [9]): 0.40 µg/g
- Bioconcentration factor in S. ambiguum (Spirostomum ambiguum [2]; [10]): 934 L/kg
- Concentration in S. ambiguum (Spirostomum ambiguum [2]; [10]): 1.40 µg/g
- Bioconcentration factor in S. ambiguum (Spirostomum ambiguum [2]; [11]): 3649 L/kg
- Concentration in S. ambiguum (Spirostomum ambiguum [2]; [11]): 1.82 µg/g
- Bioconcentration factor in S. ambiguum (Spirostomum ambiguum [2]; [12]): 1234 L/kg
- Concentration in S. ambiguum (Spirostomum ambiguum [2]; [12]): 1.85 µg/g
- BCF values reached during the uptake phase (Spirostomum ambiguum [2]; Spirostomum ambiguum, pH 7.4): ≤ 1000 L/kg
- LC50 at 1 d (in vitro; pH 6): 4.53 ± 0.55 µg/mL (≈ 13.8 µM)
- LC50 at 2 d (in vitro; pH 6): 2.55 ± 0.75 µg/mL (≈ 7.74 µM)
- LC50 at 7 d (in vitro; pH 6): 1.44 ± 0.21 µg/mL (≈ 4.37 µM)
- LC50 at 1 d (in vitro; pH 6.5): 1.4 ± 0.06 µg/mL (≈ 4.25 µM)
- LC50 at 7 d (in vitro; pH 6.5): 0.81 ± 0.31 µg/mL (≈ 2.46 µM)
- LC50 at 1 d (in vitro; pH 7.4): 1.17 ± 0.29 µg/mL (≈ 3.55 µM)
- LC50 at 2 d (in vitro; pH 7.4): 1.15 ± 0.3 µg/mL (≈ 3.49 µM)
- LC50 at 7 d (in vitro; pH 7.4): 0.77 ± 0.1 µg/mL (≈ 2.34 µM)
- LC50 (in vitro; pH 6.5): 1.27 ± 0.16 µg/mL (≈ 3.86 µM)
- toxicity (Ceriodaphnia dubia): 0.58 mg/L
- toxicity (Daphnia magna): 6.3 mg/L
- EC50 (Spirostomum ambiguum [4]; 24 h, 1 d, pH = 6.0): 3.15 ± 1.68 µg/mL (≈ 9.56 µM)
- EC50 (Spirostomum ambiguum [4]; 24 h, 1 d, pH = 6.5): 1.37 ± 0.03 µg/mL (≈ 4.16 µM)
- EC50 (Spirostomum ambiguum [4]; 24 h, 1 d, pH = 7.4): 1.15 ± 0.29 µg/mL (≈ 3.49 µM)
- EC50 (Spirostomum ambiguum [4]; 48 h, 2 d, pH = 6.0): 2.07 ± 0.73 µg/mL (≈ 6.28 µM)
- EC50 (Spirostomum ambiguum [4]; 48 h, 2 d, pH = 6.5): 1.24 ± 0.17 µg/mL (≈ 3.76 µM)
- EC50 (Spirostomum ambiguum [4]; 48 h, 2 d, pH = 7.4): 1.1 ± 0.29 µg/mL (≈ 3.34 µM)
- EC50 (Spirostomum ambiguum [4]; […], 7 d, pH = 6.0): 1.32 ± 0.13 µg/mL (≈ 4.01 µM)
- EC50 (Spirostomum ambiguum [4]; […], 7 d, pH = 6.5): 0.76 ± 0.26 µg/mL (≈ 2.31 µM)
- EC50 (Spirostomum ambiguum [4]; […], 7 d, pH = 7.4): 0.74 ± 0.06 µg/mL (≈ 2.25 µM)

Structure (SMILES): CN1CCN2c3ccccc3Cc3ccccc3C2C1 (stereo not shown) [Mianserin, mianserin]
- time of highest concentration in S. ambiguum cells (Spirostomum ambiguum [2]): two days
- Concentration in S. ambiguum (Spirostomum ambiguum [2]; Spirostomum ambiguum, 1 d, 100 µg/L, pH 7.4): 229.05 µg/g
- BCF values reached during the uptake phase (Spirostomum ambiguum [2]; Spirostomum ambiguum, pH 7.4): 4939 L/kg
- number of transformation products observed (Spirostomum ambiguum [5]): Five
- pKa ([3]; acid dissociation constant): 6.92
- Log P [3]: 3.83

Structure (SMILES): CN[C@H]1CC[C@@H](c2ccc(Cl)c(Cl)c2)c2ccccc21 [Sertraline, sertraline]
- EC20 (Spirostomum ambiguum [1]; Spirostomum ambiguum, 1 d, pH 6): 0.46 ± 0.18 µg/mL (≈ 1.5 µM)
- EC20 (Spirostomum ambiguum [1]; Spirostomum ambiguum, 1 d, pH 6.5): 0.28 ± 0.04 µg/mL (≈ 0.914 µM)
- EC20 (Spirostomum ambiguum [1]; Spirostomum ambiguum, 1 d, pH 7.4): 0.29 ± 0.01 µg/mL (≈ 0.947 µM)
- EC20 (Spirostomum ambiguum [1]; Spirostomum ambiguum, 2 d, pH 6): 0.19 ± 0.03 µg/mL (≈ 0.62 µM)
- EC20 (Spirostomum ambiguum [1]; Spirostomum ambiguum, 2 d, pH 6.5): 0.22 ± 0.08 µg/mL (≈ 0.718 µM)
- EC20 (Spirostomum ambiguum [1]; Spirostomum ambiguum, 2 d, pH 7.4): 0.29 ± 0.01 µg/mL (≈ 0.947 µM)
- EC20 (Spirostomum ambiguum [1]; Spirostomum ambiguum, 7 d, pH 6): 0.20 ± 0.05 µg/mL (≈ 0.653 µM)
- EC20 (Spirostomum ambiguum [1]; Spirostomum ambiguum, 7 d, pH 6.5): 0.13 ± 0.03 µg/mL (≈ 0.425 µM)
- EC20 (Spirostomum ambiguum [1]; Spirostomum ambiguum, 7 d, pH 7.4): 0.15 ± 0.01 µg/mL (≈ 0.49 µM)
- time of highest concentration in cells (Spirostomum ambiguum [2]; Spirostomum ambiguum, 100 µg/L, pH 7.4): 24 h
- BCF values reached during the uptake phase (Spirostomum ambiguum [2]; Spirostomum ambiguum, pH 7.4): 34,092 L/kg
- fall of intracellular concentration in the depuration phase, of the highest concentration (Spirostomum ambiguum [2]; Spirostomum ambiguum, pH 7.4): 40%
- activity against Leishmania donovani (Leishmania donovani): high activity
- LC50 at 1 d (in vitro; pH 6): 0.85 ± 0.09 µg/mL (≈ 2.78 µM)
- LC50 at 2 d (in vitro; pH 6): 0.49 ± 0.1 µg/mL (≈ 1.6 µM)
- LC50 at 7 d (in vitro; pH 6): 0.33 ± 0.08 µg/mL (≈ 1.08 µM)
- LC50 at 1 d (in vitro; pH 6.5): 0.47 ± 0.11 µg/mL (≈ 1.53 µM)
- LC50 at 2 d (in vitro; pH 6.5): 0.33 ± 0.06 µg/mL (≈ 1.08 µM)
- LC50 at 7 d (in vitro; pH 6.5): 0.18 ± 0.04 µg/mL (≈ 0.588 µM)
- LC50 at 1 d (in vitro; pH 7.4): 0.41 ± 0.05 µg/mL (≈ 1.34 µM)
- LC50 at 2 d (in vitro; pH 7.4): 0.35 ± 0.01 µg/mL (≈ 1.14 µM)
- LC50 at 7 d (in vitro; pH 7.4): 0.27 ± 0.03 µg/mL (≈ 0.882 µM)
- Log P [3]: 5.06
- 48-h LC50 (Ceriodaphnia dubia): 0.12 µg/mL
- 24-h LC50 (Thamnocephalus platyurus): 0.6 µg/mL
- 96-h LC50 (Oncorhynchus mykiss): 0.38 µg/mL
- bioaccumulation factor (BCF) [6]: higher than 2000 L/kg
- BCF (Planorbid sp.): 990 L/kg
